Results reported in patent US7241913B2, “Ruthenium compounds” (The University Court of the University of Edinburgh, priority 2003, dated 2007).
pIC50: −log10 of the molar value.

Assays:
[1] = test system: A2780 ovarian cancer cell line; experiment: Growth inhibition of human ovarian cancer cells, 24 h exposure, Coulter cell count; type: cell-based
Description: (§1) The human ovarian cells were added at a density of 1×10^4 cells per well to 24-well tissue culture trays (Falcon Plastic, Becton Dickenson, Lincon Park, N.J., USA) and allowed to grow for 72 h before addition of the Ru(II) arene complexes. Stock solutions of the ruthenium compounds were made up fresh in deionised water and sonicated to ensure complete dissolution. These stock solutions were diluted with media to give final concentrations ranging between 0.1 and 100 μM. All compounds were evaluated at each concentration in duplicate wells, and complete assays were repeated a minimum of three times. Cisplatin or carboplatin was employed as a positive and comparative control in each experiment. After 24-hours exposure the drug-containing medium was removed, the cells washed with phosphate buffered saline (PBS) and fresh medium was added. Cell number was assessed after a further 72 h growth using a Coulter counter (Coulter Electronics Ltd, Luton, UK) and the IC50 values (concentration of drug causing 50% growth inhibition) calculated by linear regression analysis comparing the inhibitory effects of the drugs against the growth of untreated cells.
(§2) The cell lines and methods used are also described in Aird et al, Br. J. Cancer, (2002), 86, 1652–1657.
(§3) Using the above protocol, a number of compounds of the invention were tested on A2780 ovarian cancer cell line, on an A2780 ovarian cancer cell line resistant to cis-platin (A2780^CIS), and on an A2780 ovarian cancer cell line resistant to adriamycin (A2780^AD). Some of the compounds were tested on an A549 cell line.

[2] = test system: A2780 ovarian cancer cell line resistant to adriamycin (A2780^AD); experiment: Growth inhibition, adriamycin resistant ovarian line; type: cell-based, human; details: adriamycin resistant A2780 relative to A2780
Description: as §1, §2, §3

[3] = test system: A2780 ovarian cancer cell line resistant to cis-platin (A2780^CIS); experiment: Growth inhibition, cis-platin resistant ovarian line; type: cell-based, human; details: cis-platin resistant A2780 relative to A2780
Description: as §1, §2, §3

A549 cell line = experiment: Growth inhibition, A549 cell line; type: cell-based; details: A549 cells; Table 1
Description: as §1, §3

[4] = 24 h exposure, cell number after further 72 h growth, Table 1
[5] = comparison with 1,2-diaminoethane analogues

How did the pIC50 [1, 4] turn out when `F[P-](F)(F)(F)(F)F.F[P-](F)(F)(F)(F)F.Nc1ccc(-c2ccc(N)c(N)c2)cc1N.[Cl][Ru+].[Cl][Ru+].c1ccc(-c2ccccc2)cc1.c1ccc(-c2ccccc2)cc1` [EX 2, {[(η^6-Biphenyl)Ru(diaminobenzidine)Cl]PF6}2] was run?
Its pIC50 is 4.28.

With `F[P-](F)(F)(F)(F)F.[Cl][Ru-]1[NH2+]c2ccccc2[NH2+]1.c1ccc(-c2ccccc2)cc1` [EX 1, [(η^6-Biphenyl)Ru(o-phenylenediamine)Cl]PF6] as the molecule, how does the pIC50 [1, 4] read?
The pIC50 was 5.30.

And the pIC50 [1, 5]?
Its pIC50 is 5.30.

What about the “A2780^AD fold resistance” value ([2]; Table 1) of the same molecule?
Its value is 0.8 fold.

And the “A2780^AD fold resistance” value [2, 5]?
The value was 0.8 fold.

What about the “A2780^CIS Fold resistance” value ([3]; Table 1) of the same molecule?
Its value is 1 fold.

What about the “A2780^CIS Fold resistance” value [3, 5] of the same molecule?
The value was 1 fold.

With `Nc1ccc2c(c1N)C(=O)c1ccccc1C2=O.[Cl-].[Cl][Ru+].c1ccc2c(c1)CCCC2` [Example 9, [(η^6-1,2,3,4-tetrahydronaphthalene)Ru(1,2-diaminoanthraquinone)Cl]Cl] as the molecule, how does the pIC50 [1, 4] read?
The pIC50 was 4.43.

And the pIC50 (A549 cell line)?
The pIC50 was 4.21.

How did the pIC50 [1, 4] turn out when `Cc1ccc(N)c(N)c1.F[P-](F)(F)(F)(F)F.[Cl][Ru+].c1ccc2c(c1)CCC2` [EX 5, [(η^6-indan)Ru(3,4-diaminotoluene)Cl]PF6] was run?
The pIC50 was 5.40.

`F[P-](F)(F)(F)(F)F.Nc1cccc(O)c1N.[Cl][Ru+].c1ccc(-c2ccccc2)cc1` [EX 4, [(η^6-Biphenyl)Ru(2,3-diaminophenol)Cl]PF6] was tested. Which pIC50 [1, 4] did it give?
The pIC50 was 4.49.

`Nc1ccc2c(c1N)C(=O)c1ccccc1C2=O.[Cl-].[Cl][Ru+].c1ccc2c(c1)CCC2` [Example 8, [(η^6-indan)Ru(1,2-diaminoanthraquinone)Cl]Cl] was tested. Which pIC50 [1, 4] did it give?
Its pIC50 is 4.82.

And the pIC50 (A549 cell line)?
Its pIC50 is 4.32.

How did the pIC50 [1, 4] turn out when `F[P-](F)(F)(F)(F)F.Nc1ccc([N+](=O)[O-])cc1N.[Cl][Ru+].c1ccc2c(c1)CCCC2` [Example 7, [(η^6-1,2,3,4-tetrahydronaphthalene)Ru(1,2-diamino-4-nitrobenzene)Cl]PF6] was run?
Its pIC50 is 4.23.

What about the pIC50 (A549 cell line) of the same molecule?
The pIC50 was 3.83.

With `F[P-](F)(F)(F)(F)F.Nc1ccccc1N.[Cl][Ru+].c1ccc2c(c1)Cc1ccccc1C2` [EX 3, [(η^6-dihydroanthracene)Ru(o-phenylenediamine)Cl]PF6] as the molecule, how does the pIC50 [1, 4] read?
The pIC50 was 5.15.

And the pIC50 [1, 5]?
The pIC50 was 5.15.

What about the “A2780^AD fold resistance” value ([2]; Table 1) of the same molecule?
Its value is 2 fold.

What about the “A2780^AD fold resistance” value [2, 5] of the same molecule?
Its value is 2 fold.

And the “A2780^CIS Fold resistance” value ([3]; Table 1)?
Its value is 5 fold.

And the “A2780^CIS Fold resistance” value [3, 5]?
Its value is 5 fold.

What does the source list for `Cc1ccc(C(C)C)cc1.F[P-](F)(F)(F)(F)F.Nc1ccccc1N.[Cl][Ru+]` [EX 6, [(η^6-p-cymene)Ru(o-phenylenediamine)Cl]PF6]?
pIC50 [1, 4]: 4.96; pIC50 [1, 5]: 4.96; A2780^AD fold resistance ([2]; Table 1): 0.6 fold; A2780^AD fold resistance [2, 5]: 0.6 fold; A2780^CIS Fold resistance ([3]; Table 1): 1 fold; A2780^CIS Fold resistance [3, 5]: 1 fold
